The text below walks through data of publication PMC7826463, “Pamiparib dose escalation in Chinese patients with non‐mucinous high‐grade ovarian cancer or advanced triple‐negative breast cancer” (Cancer Medicine, 2020).

This experiment deals with advanced HGOC or TNBC. Put plainly: Progression-free survival, total safety population. It is filed as in vivo, human. The conditions noted are these: Total (N=15). The method, then: Secondary objectives were assessment of PK parameters and antitumor activity. Blood samples for the PK analysis were collected at Cycle 1 on Days 1, 2, and 3. Pharmacokinetic sampling was performed at Cycle 1 on Day 1 (predose and at 0.5, 1, 2, 4, 6, 9, and 12 hours postdose), Day 2, Day 3, and Day 10 (predose and at 0.5, 1, 2, 4, 6, 9, and 12 hours postdose); then at Cycles 2 and 3 on Day 1 (predose and at 2 hours postdose). […] Tumor assessments were performed by the investigators at screening, every 6 weeks after the first dose of pamiparib in the 1st year, and every 12 weeks thereafter until progression, per RECIST v1.1. Patients completed the study at the time of their safety follow‐up visit; therefore, radiological assessment of disease progression was not performed after the safety follow‐up visit. Descriptive statistics were used to summarize all study data. Continuous variables included the number of non‐missing observations, mean, standard deviation, median, minimum, and maximum. Categorical variables were summarized by their frequency and percentage. Progression‐free survival was estimated using the Kaplan–Meier method and the corresponding 95% confidence interval (CI) was constructed using Greenwood's formula. Standard PK parameters (i.e., area under the plasma concentration‐time curve [AUC] from time of drug administration; maximum plasma concentration [Cmax]; time to Cmax; elimination half‐life [t1/2]; apparent clearance; and apparent volume of distribution during terminal phase) were estimated and derived using standard non‐compartmental methods.

Structures are written as SMILES.

In the case of `C[C@]12CCCN1CC1=NNC(=O)c3cc(F)cc4[nH]c2c1c34` [pamiparib, Pamiparib], under “Kaplan-Meier”, the “Event-free rate at 3 months (95% CI)” value was 50.0 (20.85–73.61) %, the “Event-free rate at 6 months (95% CI)” value was 40.0 (13.52–65.73) % and the “Event-free rate at 9 months (95% CI)” value is recorded as 40.0 (13.52–65.73) %. Further, the “Median PFS (95% CI)” value (Kaplan-Meier, NE, not estimable) is on record as 4.2 (1.48–NE) months. For the same molecule, under “safety population”, the “PFS Events” value is recorded as 7 (46.7) n (%) and the “PFS events: Disease progression” value is recorded as 7 (46.7) n (%).
